Data as given in patent US20040186081A1, “Naaladase inhibitors for treating opioid tolerance” (Guilford Pharmaceuticals Inc., priority 2003, published 2004).

Molecular target: NAALADase (Homo sapiens, UniProt Q04609)
Assay: In vitro inhibition of NAALADase activity
Format: biochemical
Settings: not given

Chain of NAALADase (Q04609 whole entry): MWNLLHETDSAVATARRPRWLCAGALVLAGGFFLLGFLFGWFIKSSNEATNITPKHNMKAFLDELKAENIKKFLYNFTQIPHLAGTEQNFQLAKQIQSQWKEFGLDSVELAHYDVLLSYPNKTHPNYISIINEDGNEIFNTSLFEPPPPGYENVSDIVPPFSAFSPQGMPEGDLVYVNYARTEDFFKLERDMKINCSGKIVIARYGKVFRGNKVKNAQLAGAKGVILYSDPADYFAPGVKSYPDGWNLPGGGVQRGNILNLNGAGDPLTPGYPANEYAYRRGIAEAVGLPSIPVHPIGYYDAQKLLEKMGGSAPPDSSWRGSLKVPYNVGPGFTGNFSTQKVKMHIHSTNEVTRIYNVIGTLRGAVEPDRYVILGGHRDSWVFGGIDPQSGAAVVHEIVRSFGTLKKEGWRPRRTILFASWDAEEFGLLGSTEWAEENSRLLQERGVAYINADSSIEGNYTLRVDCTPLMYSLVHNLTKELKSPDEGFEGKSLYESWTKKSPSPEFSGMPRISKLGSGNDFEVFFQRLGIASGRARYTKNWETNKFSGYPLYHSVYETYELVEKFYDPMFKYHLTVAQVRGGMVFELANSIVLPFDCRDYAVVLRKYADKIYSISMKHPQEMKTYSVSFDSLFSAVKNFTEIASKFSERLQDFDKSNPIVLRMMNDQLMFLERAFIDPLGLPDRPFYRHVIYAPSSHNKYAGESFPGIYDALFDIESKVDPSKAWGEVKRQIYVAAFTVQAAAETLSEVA

| Compound | Ki [nM] |
| --- | --- |
| O=C(O)Cc1cc(C(=O)O)ccc1C(=O)O [2-carboxymethyl-1,4-benzenedicarboxylic acid] | 9000 |
| O=C(O)c1cc(CP(=O)(O)O)cc(C(=O)O)c1 [5-phosphonomethyl-1,3-benzenedicarboxylic acid] | 3100 |
| O=C(O)c1cc(OCCS)cc(C(=O)O)c1 [5-(2-mercaptoethoxy)-1,3-benzenedicarboxylic acid] | 14500 |
| O=C(O)c1cc(CNCc2ccco2)cc(C(=O)O)c1 [5-[[(2-furanylmethyl)amino]methyl]-1,3-benzenedicarboxylic acid] | 50000 |

Same assay, conditions: read-out: IC50

| Compound | IC50 [nM] |
| --- | --- |
| O=C(O)CCC(CCCSCC(=O)NO)C(=O)O (centres unmarked) [2-(3-Hydroxycarbamoyl-methylsulfanylpropyl)-pentanedioic acid] | 3000 |
| O=C(O)c1ccc(CC(CCCS)C(=O)O)c2ccccc12 (stereo not drawn) [4-carboxy-alpha-(3-mercaptopropyl)-1-naphthalenepropanoic acid] | 316 |
| O=C(O)c1ccc(Br)c(CS)c1 [4-bromo-3-(mercaptomethyl)-benzoic acid] | 3200 |
| COc1cc(CC(CCCS)C(=O)O)cc(C(=O)O)c1 (stereo not drawn) [3-carboxy-alpha-(3-mercaptopropyl)-5-methoxy-benzenepropanoic acid] | 13 |
| O=C(O)c1ccc(F)c(CC(CCCS)C(=O)O)c1 (stereo not drawn) [5-carboxy-2-fluoro-alpha-(3-mercaptopropyl)-benzenepropanoic acid] | 6.33 |
| O=C(CCCSCc1ccc(-c2cccc(C(=O)O)c2)c(C(=O)O)c1)NO [4-(3-Hydroxycarbamoyl-propylsulfanylmethyl)-biphenyl-2,3′-dicarboxylic acid] | 10800 |
| CCCC(SCCCC(Cc1cccc(C(=O)O)c1)C(=O)O)C(=O)NO (centres unmarked) [3-[2-Carboxy-5-(1-hydroxycarbamoyl-butylsulfanyl)-pentyl]-benzoic acid] | 1530 |
| NC(=O)c1ccccc1CC(CCCS)C(=O)O (stereo not drawn) [2-(aminocarbonyl)-alpha-(3-mercaptopropyl)-benzenepropanoic acid] | 3950 |
| CCC(SCC(Cc1cccc(C(=O)O)c1)C(=O)O)C(=O)NO (centres unmarked) [3-[2-Carboxy-3-(1-hydroxycarbamoyl-propylsulfanyl)-propyl]-benzoic acid] | 41500 |
| CC(C)(C)c1cc(CC(C(=O)O)C(=O)NO)cc(C(=O)O)c1 (centres unmarked) [3-tert-Butyl-5-(2-carboxy-2-hydroxycarbamoyl-ethyl)-benzoic acid] | 11900 |
| O=C(O)c1ccccc1OC(CCCS)C(=O)O (centres unmarked) [2-(1-carboxy-4-mercaptobutoxy)-benzoic acid] | 4600 |
| O=C(CC(Cc1cccc(C(=O)O)c1)C(=O)O)NO (centres unmarked) [3-(2-Carboxy-3-hydroxycarbamoyl-propyl)-benzoic acid] | 693 |
| N#Cc1ccccc1CC(CCCS)C(=O)O (stereo not drawn) [2-cyano-alpha-(3-mercaptopropyl)-benzenepropanoic acid] | 450 |
| O=C(O)CNC(=O)c1cccc(CC(CCCS)C(=O)O)c1 (stereo not drawn) [3-[[(carboxymethyl)amino]carbonyl]-alpha-(3-mercaptopropyl)-benzenepropanoic acid] | 286 |
| O=C(O)C(CCCS)Cc1c(F)c(F)c(F)c(F)c1F (stereo not drawn) [2,3,4,5,6-pentafluoro-alpha-(3-mercaptopropyl)-benzenepropanoic acid] | 1000 |
| N#Cc1ccc(COc2ccc(C(=O)NO)cc2)cc1 [4-(4-Cyano-benzyloxy)-N-hydroxy-benzamide] | 14200 |
| O=C(CCc1cccc(OCc2cccc(C(=O)O)c2)c1)NO [3-[3-(2-Hydroxycarbamoyl-ethyl)-phenoxymethyl]-benzoic acid] | 92700 |
| COc1ccc(C(=O)O)cc1CC(CCCS)C(=O)O (stereo not drawn) [5-carboxy-alpha-(3-mercaptopropyl)-2-methoxy-benzenepropanoic acid] | 26 |
| CC(C)(C)CCOc1cccc(CCS)c1C(=O)O [2-(3,3-dimethylbutoxy)-6-(2-mercaptoethyl)-benzoic acid] | 2580 |
| O=C(CSCCc1cccc(-c2cccc(C(=O)O)c2)c1C(=O)O)NO [3-(2-1-Hydroxycarbamoyl-methylsulfanyl-ethyl)-biphenyl-2,3′-dicarboxylic acid] | 255 |

| Compound | IC50 [nM] |
| --- | --- |
| O=C(O)c1c(F)c(F)c(CC(CCCS)C(=O)O)c(F)c1F (stereo not drawn) [4-carboxy-2,3,5,6-tetrafluoro-alpha-(3-mercaptopropyl)-benzenepropanoic acid] | 660 |
| CC(C)C(SCCCC(Cc1cccc(C(=O)O)c1)C(=O)O)C(=O)NO (centres unmarked) [3-[2-Carboxy-5-(1-hydroxycarbamoyl-2-methyl-propylsulfanyl)-pentyl]-benzoic acid] | 2800 |
| O=C(NO)c1ccc(OCc2ccccc2)c(C(=O)O)c1 [6-Benzyloxy-N-hydroxy-isophthalamic acid] | ≥ 100000 |
| O=C(O)c1ccccc1CS [2-(mercaptomethyl)-benzoic acid] | ≥ 100000 |
| O=C(CCCC(Cc1cccc(C(=O)O)c1)C(=O)O)NO (centres unmarked) [3-(2-Carboxy-5-hydroxycarbamoyl-pentyl)-benzoic acid] | 66.3 |
| CC(=O)c1cccc(OC(CCCS)C(=O)O)c1 (centres unmarked) [2-(3-acetylphenoxy)-5-mercapto-pentanoic acid] | 2900 |
| Cc1ccc(C(=O)c2ccccc2C(=O)NO)cc1 [N-Hydroxy-2-(4-methyl-benzoyl)-benzamide] | ≥ 100000 |
| O=C(CSCCCCC(Cc1cccc(C(=O)O)c1)C(=O)O)NO (centres unmarked) [3-(2-Carboxy-6-hydroxycarbamoylmethyl-sulfanylhexyl)-benzoic acid] | 3330 |
| O=C(O)c1ccc(CNC(=O)c2cc(C(=O)O)cc(C(=O)NO)c2)cc1 | 2780 |
| COC(=O)c1ccccc1OCC(=O)NO [2-Hydroxycarbamoylmethoxy-benzoic acid methyl ester] | ≥ 100000 |
| O=C(O)c1c(CCS)cccc1OCc1ccccc1Cl [2-[(2-chlorophenyl)methoxy]-6-(2-mercaptoethyl)-benzoic acid] | 160 |
| O=C(O)c1cc(OCc2ccccc2)ccc1CCS [2-(2-mercaptoethyl)-5-(phenylmethoxy)-benzoic acid] | 380 |
| COC(=O)c1cccc(-c2cccc(OCC(=O)NO)c2C(=O)OC)c1 [3-Hydroxycarbamoylmethoxy-biphenyl-2,3′-dicarboxylic acid dimethyl ester] | ≥ 100000 |
| O=C(O)c1ccc(CC(CCCS)C(=O)O)cc1Br (stereo not drawn) [3-bromo-4-carboxy-alpha-(3-mercaptopropyl)-benzenepropanoic acid] | 146 |
| O=C(O)c1cccc(CC(C(=O)O)C(=O)NO)c1 (centres unmarked) [3-(2-Carboxy-2-hydroxycarbamoyl-ethyl)-benzoic acid] | 4530 |
| O=C(O)C(CCCS)Cc1cccc(C(F)(F)F)c1 (stereo not drawn) [alpha-(3-mercaptopropyl)-3-(trifluoromethyl)-benzenepropanoic acid] | 4000 |
| O=C(O)C(CCCS)Cc1ccc(O)cc1 (stereo not drawn) [4-hydroxy-alpha-(3-mercaptopropyl)-benzenepropanoic acid] | 2140 |
| COC(=O)c1cccc(CC(C(=O)O)C(=O)NO)c1 (centres unmarked) [3-(2-Carboxy-2-hydroxycarbamoyl-ethyl)-benzoic acid methyl ester] | ≥ 100000 |
| O=C(O)c1ccc(COc2cccc(CCS)c2C(=O)O)cc1Br [2-[(3-bromo-4-carboxyphenyl)methoxy]-6-(2-mercaptoethyl)-benzoic acid] | 0.098 |
| COc1cc(C(=O)O)ccc1COc1cccc(CCS)c1C(=O)O [2-[(4-carboxy-2-methoxyphenyl)methoxy]-6-(2-mercaptoethyl)-benzoic acid] | 7 |
